In patent US20240350493A1 (Kadmon Corporation, LLC, priority 2022, published 2024):
In brackets after ≈: the same amount, converted by molar mass. Entries after “also recorded” stand apart in the source; their conditions may differ. Read-outs that look alike come from different tables or passages of the source.

What was measured:
[1] = food effect study, 5 × 100 mg capsules (KD025-105); type: in vivo, human; details: for AUC(0-t) / AUC(0-inf) / Cmax / Tmax / half-life: male, human, plasma, oral, 500 mg, 5 × 100 mg capsules; for Tmax: read-out: Tmax, median (range)
Experimental: Both studies were single-center, open-label, randomized, single dose crossover studies in healthy males.
Water was permitted ad libitum except for 1 hour pre-and post-dose.
In both studies, serial blood samples for PK analysis were collected at pre-dose and 1, 2, 4, 6, 8, 12, 16, 24, and 36 hours post-dose. An additional sample at 30 hours post-dose was collected in the first study; additional samples were collected 3, 5, and 48 hours post-dose in the second study. Blood samples (5-6 mL per sample) were collected in K3EDTA tubes on ice and were processed within 30 minutes of collection, then frozen at approximately-70 to −80° C. shortly after collection.
Sample preparation was performed by protein precipitation.
Statistical analyses were performed in SAS using the PROC MIXED procedure and the Restricted Maximum Likelihood estimation method. In both studies, the presence of a food effect was evaluated by a formal statistical analysis on natural log-transformed AUC and Cmax using mixed effect modeling techniques. The model included treatment, period, and sequence as fixed effects and subject nested within sequence as a random effect. Adjusted geometric mean ratios (GMRs) and their 90% confidence intervals (CIs) were calculated for fed (test) versus fasted (reference) treatments. The absence of a food effect was to be concluded if the 90% CI was within the bioequivalence limits of 80.00 to 125.00%.

[2] = target: CYP1A2 (Homo sapiens, UniProt P05177); assay: enzyme inhibition, in vitro; type: in vitro ADME
[3] = system: pregnant rabbits; assay: embryo-fetal developmental study in rabbits; details: rabbit
[4] = target: CYP3A4 (Homo sapiens, UniProt P08684); assay: incubations with recombinant enzymes; type: in vitro ADME
[5] = target: human serum albumin (Homo sapiens, UniProt P02768); assay: protein binding in vitro; type: in vitro ADME
[6] = previously conducted solubility studies; type: physicochemical
Experimental: Rabeprazole, a strong PPI, suppresses the secretion of gastric acid by noncompetitive blockade of H+/K+-adenosine triphosphatase at the secretory surface of gastric parietal cells, thereby raising the intra-gastric pH above 3.0. The recommended starting dose of sodium rabeprazole for subjects with GI ulcers and GERD is 20 mg per day and for subjects with hypersecretory syndromes is 60 mg per day (Accord-UK Ltd. Summary of Product Characteristics: Rabeprazole 20 mg Gastro-resistant Tablets, available at www.medicines.org.uk/emc/medicine/27143/SPC/Rabeprazole+20 mg+Gastro-resistant+Tablets/. Updated 16 Apr. 2020. Accessed 12 Aug. 2021).

[7] = system: human peripheral blood lymphocytes (HPBL); assay: in vitro chromosome aberration assay; type: cell-based
[8] = pH-dependent solubility; type: physicochemical
[9] = system: rat bone marrow; assay: in vivo rat bone marrow micronucleus assay
[10] = system: healthy male subjects; assay: phase I drug-drug interaction study, safety and tolerability (Example 1); type: in vivo, human
From the text: This was a single center, non-randomized, DDI study in 35 (Part 1) and 38 (Part 2) healthy males. The key inclusion criterion was males aged 18 to 55 years (inclusive). […] In Part 2, co-administration with omeprazole was studied. The study design is illustrated in FIG. 1.
At least a 2-to 8-day washout occurred between each period to account for a minimum of 5 half-lives of the active moieties dosed in the preceding period.
Safety and tolerability of belumosudil was the secondary endpoint of the study and was evaluated by AEs, vital signs, physical examinations, electrocardiograms (ECGs), and clinical laboratory tests. All subjects who received at least one dose of belumosudil or perpetrator compound were included in the safety population.

[11] = target: CYP2D6 (Homo sapiens, UniProt P10635); assay: enzyme inhibition, in vitro; type: in vitro ADME
Sequence of CYP2D6 (P10635 whole entry): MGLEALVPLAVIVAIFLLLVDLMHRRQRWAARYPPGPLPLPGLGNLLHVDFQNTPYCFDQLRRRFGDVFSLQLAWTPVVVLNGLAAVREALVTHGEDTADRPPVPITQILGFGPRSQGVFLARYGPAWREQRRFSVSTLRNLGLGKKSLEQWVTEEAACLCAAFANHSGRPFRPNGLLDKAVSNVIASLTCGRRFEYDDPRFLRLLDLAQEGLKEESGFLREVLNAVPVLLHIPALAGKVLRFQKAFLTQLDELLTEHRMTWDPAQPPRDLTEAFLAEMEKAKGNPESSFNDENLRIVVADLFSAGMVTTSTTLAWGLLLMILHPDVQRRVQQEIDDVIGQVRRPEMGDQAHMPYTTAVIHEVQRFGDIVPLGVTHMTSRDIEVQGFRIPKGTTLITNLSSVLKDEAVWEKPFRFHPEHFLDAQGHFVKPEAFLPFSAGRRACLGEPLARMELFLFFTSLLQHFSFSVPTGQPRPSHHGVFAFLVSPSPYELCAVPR

Sequence of CYP3A4 (P08684 whole entry): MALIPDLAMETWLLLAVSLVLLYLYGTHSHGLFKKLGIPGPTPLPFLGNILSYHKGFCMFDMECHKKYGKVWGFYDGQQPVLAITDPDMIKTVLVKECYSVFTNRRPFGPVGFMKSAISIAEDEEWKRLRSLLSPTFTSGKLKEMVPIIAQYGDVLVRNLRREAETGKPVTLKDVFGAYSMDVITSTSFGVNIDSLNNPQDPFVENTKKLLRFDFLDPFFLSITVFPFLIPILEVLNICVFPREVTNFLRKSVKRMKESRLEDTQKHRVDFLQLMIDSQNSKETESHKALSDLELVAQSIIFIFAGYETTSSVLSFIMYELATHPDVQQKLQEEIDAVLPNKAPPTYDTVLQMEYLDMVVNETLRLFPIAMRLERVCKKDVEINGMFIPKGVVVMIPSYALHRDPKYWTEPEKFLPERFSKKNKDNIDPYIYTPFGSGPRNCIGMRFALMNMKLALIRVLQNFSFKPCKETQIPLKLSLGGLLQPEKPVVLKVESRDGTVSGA
Sequence of human serum albumin (P02768 25-609): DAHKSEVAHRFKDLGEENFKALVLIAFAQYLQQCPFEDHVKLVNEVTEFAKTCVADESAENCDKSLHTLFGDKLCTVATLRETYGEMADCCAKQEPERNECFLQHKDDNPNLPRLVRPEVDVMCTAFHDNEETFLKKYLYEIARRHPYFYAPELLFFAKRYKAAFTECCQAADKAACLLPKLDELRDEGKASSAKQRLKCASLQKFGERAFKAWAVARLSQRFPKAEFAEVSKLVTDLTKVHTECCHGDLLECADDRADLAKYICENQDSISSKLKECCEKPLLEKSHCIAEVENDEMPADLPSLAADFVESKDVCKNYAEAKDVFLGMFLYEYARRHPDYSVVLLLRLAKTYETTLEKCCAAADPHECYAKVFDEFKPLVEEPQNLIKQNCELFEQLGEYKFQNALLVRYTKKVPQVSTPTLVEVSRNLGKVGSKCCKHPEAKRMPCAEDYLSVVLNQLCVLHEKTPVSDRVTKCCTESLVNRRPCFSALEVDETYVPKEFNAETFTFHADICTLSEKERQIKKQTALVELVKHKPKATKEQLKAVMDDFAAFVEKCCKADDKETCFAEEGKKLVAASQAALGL
Sequence of CYP1A2 (P05177 whole entry): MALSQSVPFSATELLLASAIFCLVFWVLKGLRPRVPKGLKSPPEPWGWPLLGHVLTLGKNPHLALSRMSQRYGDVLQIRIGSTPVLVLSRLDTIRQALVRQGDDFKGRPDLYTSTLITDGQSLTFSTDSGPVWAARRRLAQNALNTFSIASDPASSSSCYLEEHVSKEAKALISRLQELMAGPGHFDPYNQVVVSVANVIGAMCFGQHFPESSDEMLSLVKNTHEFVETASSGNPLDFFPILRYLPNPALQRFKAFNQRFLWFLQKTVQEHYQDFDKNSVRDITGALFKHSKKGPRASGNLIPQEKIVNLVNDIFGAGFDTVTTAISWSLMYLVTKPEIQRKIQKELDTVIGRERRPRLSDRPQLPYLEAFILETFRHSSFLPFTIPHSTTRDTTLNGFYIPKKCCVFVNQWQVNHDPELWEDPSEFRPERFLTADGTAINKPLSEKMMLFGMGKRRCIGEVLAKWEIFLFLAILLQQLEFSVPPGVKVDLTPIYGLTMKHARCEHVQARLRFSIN

CC(C)NC(=O)COc1cccc(-c2nc(Nc3ccc4[nH]ncc4c3)c3ccccc3n2)c1 [Belumosudil, 2-{3-[4-(1H-indazol-5-ylamino)-2-quinazolinyl]phenoxy}-N-(propan-2-yl) acetamide]
GMRs fed vs fasted for Cmax and AUC ([1]; 500 mg capsules): above 125% | AUC(0-t) ([1]; fasted, read-out: AUC0-24, arithmetic mean (SD)): 7980 ng·h/mL | AUC(0-t) ([1]; fasted, read-out: AUC0-24, geometric mean (geometric CV %)): 7600 ng·h/mL | AUC(0-inf) ([1]; fasted, read-out: AUCinf, arithmetic mean (SD)): 8700 ng·h/mL | AUC(0-inf) ([1]; fasted, read-out: AUCinf, geometric mean (geometric CV %)): 8310 ng·h/mL | AUC(0-t) ([1]; fasted, read-out: AUClast, arithmetic mean (SD)): 8590 ng·h/mL | AUC(0-t) ([1]; fasted, read-out: AUClast, geometric mean (geometric CV %)): 8190 ng·h/mL | Cmax ([1]; fasted, read-out: Cmax, arithmetic mean (SD)): 1580 ng/mL | Cmax ([1]; fasted, read-out: Cmax, geometric mean (geometric CV %)): 1500 ng/mL | Tmax ([1]; fasted): 2 h | half-life ([1]; fasted, read-out: t1/2, arithmetic mean (SD) (converted)): 9.5 h | half-life ([1]; fasted, read-out: t1/2, geometric mean (geometric CV %) (converted)): 9 h | AUC(0-t) ([1]; fed, read-out: AUC0-24, arithmetic mean (SD)): 25100 ng·h/mL | AUC(0-t) ([1]; fed, read-out: AUC0-24, geometric mean (geometric CV %)): 23300 ng·h/mL | AUC(0-inf) ([1]; fed, read-out: AUCinf, arithmetic mean (SD)): 26900 ng·h/mL | AUC(0-inf) ([1]; fed, read-out: AUCinf, geometric mean (geometric CV %)): 25100 ng·h/mL | AUC(0-t) ([1]; fed, read-out: AUClast, arithmetic mean (SD)): 26200 ng·h/mL | AUC(0-t) ([1]; fed, read-out: AUClast, geometric mean (geometric CV %)): 24400 ng·h/mL | Cmax ([1]; fed, read-out: Cmax, arithmetic mean (SD)): 4280 ng/mL | Cmax ([1]; fed, read-out: Cmax, geometric mean (geometric CV %)): 3780 ng/mL | Tmax ([1]; fed): 4 h | half-life ([1]; fed, read-out: t1/2, arithmetic mean (SD) (converted)): 8 h | half-life ([1]; fed, read-out: t1/2, geometric mean (geometric CV %) (converted)): 7.9 h | CYP1A2 inhibition [2]: inhibitor | maternal exposures (AUC) with adverse developmental outcomes, times human exposure at recommended dose [3]: ≥ 0.07 times | share of belumosudil metabolism [4]: 41.9% | binding to human serum albumin [5]: 99.9% | solubility ([6]; pH 2.7, aqueous buffer): > 100 µg/mL | solubility ([6]; pH 6.5, aqueous buffer): ~4 µg/mL (≈ 8.84 µM) | solubility ([6]; pH 7.4, aqueous buffer): ~3 µg/mL (≈ 6.63 µM) | genotoxicity [7]: not genotoxic | solubility ([8]; pH 1.08, simulated gastric fluid): 11 µg/mL (≈ 24.3 µM) | solubility ([8]; pH 1.6, simulated gastric fluid): 1640 µg/mL (≈ 3630 µM) | solubility ([8]; pH 6.5, aqueous buffer): 3 µg/mL (≈ 6.63 µM) | solubility ([8]; simulated gastric fluid, pH 2.0): 1430 µg/mL (≈ 3170 µM) | genotoxicity [9]: not genotoxic | treatment-emergent AEs (TEAEs) reported ([10]; Periods 1, 2, and 4): 33 | AEs considered possibly related to belumosudil ([10]; all mild: abdominal distension, hot flush, fatigue): Three | serious AE (SAE) ([10]; ankle fracture after belumosudil+itraconazole, considered unrelated): One | subjects reporting gastrointestinal disorders ([10]; belumosudil alone): 3 subjects | subjects reporting gastrointestinal disorders ([10]; belumosudil+itraconazole): 5 subjects | deaths or AEs leading to subject withdrawal ([10]; in vivo): no deaths or AEs leading to subject withdrawal | safety profile ([10]; with and without perpetrator compounds): unremarkable; also recorded: safe, and no notable adverse events were reported | CYP2D6 inhibition [11]: inhibitor
